Data: patent US20080033274A1, “Device and Method for Monitoring the Functioning of the Lower Esophageal Sphincter” (Altana Pharma AG, priority 2004, published 2008)

System: transient lower esophageal sphincter relaxations (TLESRs) in the conscious dog
Assay: Number of TLESRs (hydrogen marker gas eructations) in gastric fistula dog under barostat gastric pressure
Format: in vivo
Settings: 7 μmol/kg i.v., 12 mm Hg to the stomach
Text: The various aspects of the invention were studied with fistula dogs. The fistula is inserted into the stomach of the dog by methods known to the expert, for example as described in Postius S, Braeuer U. Loss of circadian rhythm in luminal acidity of canine stomach by implantation of a gastric fistula. Digestion. 1995; 56(1):3540.
The method according to the invention was used to quantify the number of transient lower esophageal sphincter relaxations (TLESRs, leading to gas refluxes) in the conscious dog, which are provoked by the introduction of hydrogen gas in the stomach. The method can be used with fasted or fed animals and it is not depending on the status of gastric acid secretion.
For the assessment of TLESRs, the gastric fistula dogs were temporarily connected via the gastric fistula to a barostat which continuously measures the gastric pressure and continuously approximates during the monitoring of the marker gas a target pressure by sucking or pumping a gas mixture of air and hydrogen, comprising 0.2-3% hydrogen, whereby 3% of hydrogen was yielding the highest sensitivity.
A target pressure was selected that causes an appropriate number of TLESRs, usually for a period of 30 min. […] The quantification of TLESRs resulting in eructations was performed by continuous collection of the gas in front of and in the middle of nose and mouth of the dog with an open measuring probe head. This gas, comprising hydrogen from the gastric gas mixture, which eructed if the dog is belching, was sucked to a hydrogen sensor (Model used: UST 2330, UST—Umweltsensortechnik GmbH, 98716 Geschwenda, Germany) registering the hydrogen concentration. Significant enhancement in hydrogen concentration in the collected gas was defined to represent a TLESR caused by an eruction. […] Some eructions occurred at 6 mm Hg and lots were measured above 12 mm Hg. However, above 12-14 mm Hg vomiting might be induced as well.
The study design was as follows: […]
0-30 minutes: detection of the number of TLESR by monitoring the concentration of hydrogen detected in the sensor […]

Structure (SMILES): NCC(CC(=O)O)c1ccc(Cl)cc1 (stereo not drawn) [Baclofen]
- Number of TLESR detected in the time period indicated (time period 0-10 minutes): 0.75
- Number of TLESR detected in the time period indicated (time period 10-20 minutes): 0.25
- Number of TLESR detected in the time period indicated (time period 20-30 minutes): 1.75
